In patent US7084141B2, “Inhibitors of macrophase migration inhibitory factor and methods for identifying the same” (Avanir Pharmaceuticals, priority 2001, dated 2006):

Legend:
[1] = system: serum TNF-α; experiment: Collagen induced arthritis model, serum TNF-α (ELISA); format: in vivo, mouse; conditions: day 74, compared to untreated CIA samples
Experimental: In another experiment, fifteen DBA/1J mice, age 10–12 weeks were immunized on day 0 at the base of the tail with bovine collagen type II (CII 100 μg), emulsified in Freunds complete adjuvant (FCA; GibcoBRL). On day 21, a second dose of collagen was administered via the same route, emulsified in Freunds incomplete adjuvant. On day 28 the mice were injected subcutaneously with 100 μg of LPS (055:B5). On day 71 the mice were injected i.p. with 40 μg LPS (0111:B4). Groups and treatment protocol were the same as described as above. On day 74 blood samples were collected and cytokines were measured.

[2] = target: T1, MIF produced by THP-1 cells (Homo sapiens, UniProt P14174); experiment: High throughput screening ELISA for MIF inhibitors (THP-1 supernatant / pre-conditioned media incubated with inhibitor); format: binding; conditions: absence of cells, 30 minutes at 37° C.
T1 construct: a test cell may express the MIF naturally (e.g., THP-1 cells); endogenous in cells; host or cells: THP-1 cells stimulated with LPS
T1 sequence (P14174 2-115 limits assumed): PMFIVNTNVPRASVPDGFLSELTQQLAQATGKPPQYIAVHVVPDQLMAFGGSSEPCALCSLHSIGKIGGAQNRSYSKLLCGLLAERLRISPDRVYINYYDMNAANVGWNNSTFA
Experimental: Alternatively, ELISA may be preferred to detect and quantify the amount of MIF in cell supernatants. ELISA is preferred for detection in high throughput screening. Briefly, 96-well plates are coated with an anti-MIF antibody or anti-tag antibody, washed, and blocked with 2% BSA. Cell supernatant is then added to the wells. Following incubation and washing, a second antibody (e.g., to MIF) is added. The second antibody may be coupled to a label or detecting reagent, such as an enzyme or to biotin. Following further incubation, a developing reagent is added and the amount of MIF determined using an ELISA plate reader. […]
In the previous experiment (FIG. 3), the ability of compound 7e to modulate antibody binding to MIF protein was analyzed in the presence of LPS-stimulated THP1 cells. […] Six hours later, the conditioned media was removed, clarified of cell debris and the amount of MIF determined to be 22 ng/ml. […] The level of detectable MIF was then determined by ELISA using the monoclonal anti-MIF antibody for detection. […]
The high throughput screening assay for MIF inhibitors is performed in a 96-well format using MIF produced by THP-1 cells and is performed as follows. […] The amount of MIF is calculated by interpolation from an MIF standard curve.

## Cn1c(=O)c([N+](=O)[O-])c(N2CCN(C(=O)c3ccco3)CC2)c2ccccc21 [compound 7e]
[1]
  serum TNF-α levels: more significant inhibition of serum TNF-α levels
[2]
  MIF specific ELISA signal in pre-conditioned media: rapid loss of MIF specific ELISA signal
